# Test results taken from patent US6191115A, “C-terminus modified heptapeptide LHRH analogs” (Abbott Laboratories, priority 1999, dated 2001).
# Starred links: 1 amine or outer side, 2 acyl side, 3 side chain; linkers in the order of their positions; H or OH if unused. Non-standard residues stand in square brackets, D forms with d. Residues, ends and D or L forms follow the SMILES beside them. *: point of attachment. dPhe(4-Cl) = N[C@H](Cc1ccc(Cl)cc1)C(=O)O; NH(CH2)10NH = C(CCCCCN[*:2])CCCCN[*:1]; d2Nal = N[C@H](Cc1ccc2ccccc2c1)C(=O)O; NMeY = CN[C@@H](Cc1ccc(O)cc1)C(=O)O; NHCH2(2-pyridyl) = c1ccc(CN*)nc1; d3Pal = N[C@H](Cc1cccnc1)C(=O)O; NHPhenethyl = c1ccc(CCN*)cc1; Nicotinoyl = O=C(c1cccnc1)*; NH(CH2)8NH2 = NCCCCCCCCN*; Agmatine = N=C(N)NCCCCN*; NH(CH2)7NH2 = NCCCCCCCN*; X9 = CC(C)NCCCCCCCCCCN*; NH(CH2)5NH2 = NCCCCCN*; X6 = N=C(N)NCCCCCCCCN*; NHCH2CH2NHMe = CNCCN*; X10 = N=C(N)NCCCCCCN*; NH(CH2)3NH2 = NCCCN*; X12 = N=C(N)NCCCCCN*; X11 = CC(C)NCCCCCN*; X2 = N=C(N)NCCN*; X4 = CC(C)NCCN*
# Molecular target: T1, LH release from rat pituitary cells (Rattus norvegicus, UniProt P30969)
# T1 sequence (P30969 1-327): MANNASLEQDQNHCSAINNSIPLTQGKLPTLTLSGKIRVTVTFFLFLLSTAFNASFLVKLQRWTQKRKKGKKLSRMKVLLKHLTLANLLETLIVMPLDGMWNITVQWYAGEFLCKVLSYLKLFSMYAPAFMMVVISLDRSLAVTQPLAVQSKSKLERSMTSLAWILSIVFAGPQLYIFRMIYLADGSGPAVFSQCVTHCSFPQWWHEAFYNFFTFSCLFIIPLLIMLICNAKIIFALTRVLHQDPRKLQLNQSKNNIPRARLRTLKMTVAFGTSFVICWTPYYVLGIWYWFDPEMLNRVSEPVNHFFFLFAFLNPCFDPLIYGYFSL
# Assay: in vitro inhibition of LH release from rat pituitary cells (pA2)
# Format: cell-based
# Conditions: pA2 = negative logarithm of antagonist concentration required to shift the response curve of the agonist leuprolide to two-fold higher concentration
# Procedure: Representative compounds of the present invention were evaluated in vitro for inhibition of LH release from rat pituitary cells (pA2). Methods for the assay procedures arc described by F. Haviv, et al. J. Med. Chem., 32:2340-2344 (1989). Values of pA2 are the negative logarithms of the concentration of the particular antagonist test compound required to shift the response curve produced by the agonist leuprolide to two-fold higher concentration. Typically values of 7.0 or greater are indicative of good LHRH antagonist potency, with values of 8.0 or greater being preferred. Leuprolide LHRH agonist, disclosed and claimed in U.S. Pat. No. 4,005,063, has the structure 5-oxo-Pro^1 -His^2 -Trp^3 -Ser^4 -Tyr^5 -D-Leu^6 -Leu^7 -Arg^8 -Pro^9 -NHEt.
row,Structure (SMILES),LHRH antagonist potency (pA2)
1,"CC(=O)N[C@H](Cc1ccc2ccccc2c1)C(=O)N[C@H](Cc1ccc(Cl)cc1)C(=O)N[C@H](Cc1cccnc1)C(=O)N[C@@H](CO)C(=O)N(C)[C@@H](Cc1ccc(O)cc1)C(=O)N[C@H](CCCCNC(=O)c1cccnc1)C(=O)N[C@@H](CC(C)C)C(=O)NCCc1ccccc1 [Example 8, NAcD2Nal-D4ClPhe-D3Pal-Ser-NMeTyr-DLys(Nic)-Leu-NH--(CH2)2 -phenyl] (Ac-[d2Nal][dPhe(4-Cl)][d3Pal]S[NMeY][dK](Nicotinoyl)L-NHPhenethyl)",8.48
2,"CC(=O)N[C@H](Cc1ccc2ccccc2c1)C(=O)N[C@H](Cc1ccc(Cl)cc1)C(=O)N[C@H](Cc1cccnc1)C(=O)N[C@@H](CO)C(=O)N(C)[C@@H](Cc1ccc(O)cc1)C(=O)N[C@H](CCCCNC(=O)c1cccnc1)C(=O)N[C@@H](CC(C)C)C(=O)NCCNC(C)C [Example 9, NAcD2Nal-D4ClPhe-D3Pal-Ser-NMeTyr-DLys(Nic)-Leu-NH--(CH2)2 NH-isopropyl] (Ac-[d2Nal][dPhe(4-Cl)][d3Pal]S[NMeY][dK](Nicotinoyl)L-X4)",10.21
3,"CC(=O)N[C@H](Cc1ccc2ccccc2c1)C(=O)N[C@H](Cc1ccc(Cl)cc1)C(=O)N[C@H](Cc1cccnc1)C(=O)N[C@@H](CO)C(=O)N(C)[C@@H](Cc1ccc(O)cc1)C(=O)N[C@H](CCCCNC(=O)c1cccnc1)C(=O)N[C@@H](CC(C)C)C(=O)NCCCCCCCN [Example 10, NAcD2Nal-D4ClPhe-D3Pal-Ser-NMeTyr-DLys(Nic)-Leu-NH--(CH2)7 NH2] (Ac-[d2Nal][dPhe(4-Cl)][d3Pal]S[NMeY][dK](Nicotinoyl)L-{NH(CH2)7NH2})",8.76
4,"CC(=O)N[C@H](Cc1ccc2ccccc2c1)C(=O)N[C@H](Cc1ccc(Cl)cc1)C(=O)N[C@H](Cc1cccnc1)C(=O)N[C@@H](CO)C(=O)N(C)[C@@H](Cc1ccc(O)cc1)C(=O)N[C@H](CCCCNC(=O)c1cccnc1)C(=O)N[C@@H](CC(C)C)C(=O)NCCCCCCNC(=N)N [Example 11, NAcD2Nal-D4ClPhe-D3Pal-Ser-NMeTyr-DLys(Nic)-Leu-NH--(CH2)6 NH(C=NH)NH2] (Ac-[d2Nal][dPhe(4-Cl)][d3Pal]S[NMeY][dK](Nicotinoyl)L-X10)",9.10
5,"CC(=O)N[C@H](Cc1ccc2ccccc2c1)C(=O)N[C@H](Cc1ccc(Cl)cc1)C(=O)N[C@H](Cc1cccnc1)C(=O)N[C@@H](CO)C(=O)N(C)[C@@H](Cc1ccc(O)cc1)C(=O)N[C@H](CCCCNC(=O)c1cccnc1)C(=O)N[C@@H](CC(C)C)C(=O)NCCCCCNC(C)C [Example 12, NAcD2Nal-D4ClPhe-D3Pal-Ser-NMeTyr-DLys(Nic)-1-Leu-NH--(CH2)5 NH-isopropyl] (Ac-[d2Nal][dPhe(4-Cl)][d3Pal]S[NMeY][dK](Nicotinoyl)L-X11)",10.45
6,"CC(=O)N[C@H](Cc1ccc2ccccc2c1)C(=O)N[C@H](Cc1ccc(Cl)cc1)C(=O)N[C@H](Cc1cccnc1)C(=O)N[C@@H](CO)C(=O)N(C)[C@@H](Cc1ccc(O)cc1)C(=O)N[C@H](CCCCNC(=O)c1cccnc1)C(=O)N[C@@H](CC(C)C)C(=O)NCCCCCN [Example 13, NAcD2Nal-D4ClPhe-D3Pal-Ser-NMeTyr-DLys(Nic)-Leu-NH--(CH2)5 NH2] (Ac-[d2Nal][dPhe(4-Cl)][d3Pal]S[NMeY][dK](Nicotinoyl)L-{NH(CH2)5NH2})",9.30
7,"CC(=O)N[C@H](Cc1ccc2ccccc2c1)C(=O)N[C@H](Cc1ccc(Cl)cc1)C(=O)N[C@H](Cc1cccnc1)C(=O)N[C@@H](CO)C(=O)N(C)[C@@H](Cc1ccc(O)cc1)C(=O)N[C@H](CCCCNC(=O)c1cccnc1)C(=O)N[C@@H](CC(C)C)C(=O)NCCCCCNC(=N)N [Example 14, NAcD2Nal-D4ClPhe-D3Pal-Ser-NMeTyr-DLys(Nic)-Leu-NH--(CH2)5 NH(C=NH)NH2] (Ac-[d2Nal][dPhe(4-Cl)][d3Pal]S[NMeY][dK](Nicotinoyl)L-X12)",9.81
8,"CC(=O)N[C@H](Cc1ccc2ccccc2c1)C(=O)N[C@H](Cc1ccc(Cl)cc1)C(=O)N[C@H](Cc1cccnc1)C(=O)N[C@@H](CO)C(=O)N(C)[C@@H](Cc1ccc(O)cc1)C(=O)N[C@H](CCCCNC(=O)c1cccnc1)C(=O)N[C@@H](CC(C)C)C(=O)NCCCN [Example 15, NAcD2Nal-D4ClPhe-D3Pal-Ser-NMeTyr-DLys(Nic)-Leu-NH--(CH2)3 NH2] (Ac-[d2Nal][dPhe(4-Cl)][d3Pal]S[NMeY][dK](Nicotinoyl)L-{NH(CH2)3NH2})",8.70
9,"CC(=O)N[C@H](Cc1ccc2ccccc2c1)C(=O)N[C@H](Cc1ccc(Cl)cc1)C(=O)N[C@H](Cc1cccnc1)C(=O)N[C@@H](CO)C(=O)N(C)[C@@H](Cc1ccc(O)cc1)C(=O)N[C@H](CCCCNC(=O)c1cccnc1)C(=O)N[C@@H](CC(C)C)C(=O)NCCNC(=N)N [Example 16, NAcD2Nal-D4ClPhe-D3Pal-Ser-NMeTyr-DLys(Nic)-Leu-NH--(CH2)2 NH(C=NH)NH2] (Ac-[d2Nal][dPhe(4-Cl)][d3Pal]S[NMeY][dK](Nicotinoyl)L-X2)",8.89
10,"CC(=O)N[C@H](Cc1ccc2ccccc2c1)C(=O)N[C@H](Cc1ccc(Cl)cc1)C(=O)N[C@H](Cc1cccnc1)C(=O)N[C@@H](CO)C(=O)N(C)[C@@H](Cc1ccc(O)cc1)C(=O)N[C@H](CCCCNC(=O)c1cccnc1)C(=O)N[C@@H](CC(C)C)C(=O)NCCCCCCCCCCN [Example 17, NAcD2Nal-D4ClPhe-D3Pal-Ser-NMeTyr-DLys(Nic)-Leu-NH--(CH2)10 NH2] (Ac-[d2Nal][dPhe(4-Cl)][d3Pal]S[NMeY][dK](Nicotinoyl)L-{NH(CH2)10NH})",7.63
11,"CC(=O)N[C@H](Cc1ccc2ccccc2c1)C(=O)N[C@H](Cc1ccc(Cl)cc1)C(=O)N[C@H](Cc1cccnc1)C(=O)N[C@@H](CO)C(=O)N(C)[C@@H](Cc1ccc(O)cc1)C(=O)N[C@H](CCCCNC(=O)c1cccnc1)C(=O)N[C@@H](CC(C)C)C(=O)NCCCCCCCCN [Example 18, NAcD2Nal-D4ClPhe-D3Pal-Ser-NMeTyr-DLys(Nic)-Leu-NH--(CH2)8 NH2] (Ac-[d2Nal][dPhe(4-Cl)][d3Pal]S[NMeY][dK](Nicotinoyl)L-{NH(CH2)8NH2})",8.48
12,"CNCCNC(=O)[C@H](CC(C)C)NC(=O)[C@@H](CCCCNC(=O)c1cccnc1)NC(=O)[C@H](Cc1ccc(O)cc1)N(C)C(=O)[C@H](CO)NC(=O)[C@@H](Cc1cccnc1)NC(=O)[C@@H](Cc1ccc(Cl)cc1)NC(=O)[C@@H](Cc1ccc2ccccc2c1)NC(C)=O [Example 19, NAcD2Nal-D4ClPhe-D3Pal-Ser-NMeTyr-DLys(Nic)-Leu-NH--(CH2)2 NHCH3] (Ac-[d2Nal][dPhe(4-Cl)][d3Pal]S[NMeY][dK](Nicotinoyl)L-NHCH2CH2NHMe)",9.70
13,"CC(=O)N[C@H](Cc1ccc2ccccc2c1)C(=O)N[C@H](Cc1ccc(Cl)cc1)C(=O)N[C@H](Cc1cccnc1)C(=O)N[C@@H](CO)C(=O)N(C)[C@@H](Cc1ccc(O)cc1)C(=O)N[C@H](CCCCNC(=O)c1cccnc1)C(=O)N[C@@H](CC(C)C)C(=O)NCCCCCCCCNC(=N)N [Example 20, NAcD2Nal-D4ClPhe-D3Pal-Ser-NMeTyr-DLys(Nic)-Leu-NH--(CH2)8 NH(C=NH)NH2] (Ac-[d2Nal][dPhe(4-Cl)][d3Pal]S[NMeY][dK](Nicotinoyl)L-X6)",8.39
14,"CC(=O)N[C@H](Cc1ccc2ccccc2c1)C(=O)N[C@H](Cc1ccc(Cl)cc1)C(=O)N[C@H](Cc1cccnc1)C(=O)N[C@@H](CO)C(=O)N(C)[C@@H](Cc1ccc(O)cc1)C(=O)N[C@H](CCCCNC(=O)c1cccnc1)C(=O)N[C@@H](CC(C)C)C(=O)NCCCCCCCCCCNC(C)C [Example 21, NAcD2Nal-D4ClPhe-D3Pal-Ser-NMeTyr-DLys(Nic)-Leu-NH--(CH2)10 NH-isopropyl] (Ac-[d2Nal][dPhe(4-Cl)][d3Pal]S[NMeY][dK](Nicotinoyl)L-X9)",8.42
15,"CC(=O)N[C@H](Cc1ccc2ccccc2c1)C(=O)N[C@H](Cc1ccc(Cl)cc1)C(=O)N[C@H](Cc1cccnc1)C(=O)N[C@@H](CO)C(=O)N(C)[C@@H](Cc1ccc(O)cc1)C(=O)N[C@H](CCCCNC(=O)c1cccnc1)C(=O)N[C@@H](CC(C)C)C(=O)NCCCCNC(=N)N [Example 22, NAcD2Nal-D4ClPhe-D3Pal-Ser-NMeTyr-DLys(Nic)-Leu-NH--(CH2)4 NH(C=NH)NH2] (Ac-[d2Nal][dPhe(4-Cl)][d3Pal]S[NMeY][dK](Nicotinoyl)L-Agmatine)",10.26
16,"CC(=O)N[C@H](Cc1ccc2ccccc2c1)C(=O)N[C@H](Cc1ccc(Cl)cc1)C(=O)N[C@H](Cc1cccnc1)C(=O)N[C@@H](CO)C(=O)N(C)[C@@H](Cc1ccc(O)cc1)C(=O)N[C@H](CCCCNC(=O)c1cccnc1)C(=O)N[C@@H](CC(C)C)C(=O)NCc1ccccn1 [Example 23, NAcD2Nal-D4ClPhe-D3Pal-Ser-NMeTyr-DLys(Nic)-Leu-NH--CH2 -(2-pyridine)] (Ac-[d2Nal][dPhe(4-Cl)][d3Pal]S[NMeY][dK](Nicotinoyl)L-{NHCH2(2-pyridyl)})",9.18
